Measurements: patent US11046726B2, “Nucleotide analogues” (QIAGEN SCIENCES, LLC, priority 2015, dated 2021)

Assay: Cleavage experiments with a variety of cleavage agents, reaction mixtures analyzed by RP-HPLC (FIG. 77, 78A-78B)
Settings: after 10 minutes of incubation with cleave reagent
From the text: In addition to these a variety of suitable cleaving agents can be used such as Bis(2-mercaptoethyl)sulfone (BMS) and N,N′-dimethyl-N,N′-bis(mercaptoacetyl)hydrazine (DMH) (Singh et al., Bioorg. Chem., 22, 109-115 (1994). Reactions can be further catalyzed by inclusion of selenols (Singh et al. Anal Biochem. 1995 Nov. 20; 232(1):86-91 [18]). Borohydrides, such as sodium borohydrides can also be used for this purpose (Stahl et al., Anal. Chem., 1957, 29 (1), pp 151 155 [19]) as well as ascorbic acid (Nardai et al., J. Biol. Chem. 276, 8825-8828 (2001)). In addition, enzymatic methods for cleavage of disulfide bonds ae also well known such as disulfide and thioreductase and can be used with compounds of the present invention (Holmgren et. al., Methods in Enzymology, Volume 252, 1995, Pages 199-208 [21]).

Structure (SMILES)	cleavage of linker and 3′-protective group by cleavage agent
O[C@H](CS)[C@H](O)CS (racemic) [DTT, dithiothreitol]	full cleavage of both linker and the 3′-protective groups
N[C@@H](CS)C(=O)O [L-cysteine]	full cleavage of both linker and the 3′-protective groups
NCCS [cysteamine]	full cleavage of both linker and the 3′-protective groups
OC(=S)CCC(O)=S [dithiosuccinic acid]	selective cleavage of 3′-O-protective group
